Measurements published in PMC3871636 (PLoS ONE, 2013).

Legend:
[1] = target: CYP3A4 (double-labeled (C64/C468)-DY/ER) (Homo sapiens, UniProt P08684, form not given/S18F); assay: Steady-state LRET titration (delayed emission); assay type: binding; conditions: human, purified double-labeled CYP3A4 (C64/C468)-DY/ER protein, pH 7.4; (C64/C468)-DY/ER; LRET titration; read-out: K d, steady-state fluorescence
Protocol: (§1) All absorbance and fluorescence assays (including the time-resolved fluorescence measurements) were performed at a protein concentration ≤1 µM at 25°C with continuous stirring. Absorbance spectra were recorded with an S2000 rapid scanning CCD spectrometer (Ocean Optics). Ligand binding assays were done in 100 mM Na-Hepes buffer, pH 7.4, containing 0.5 mM EDTA.
(§2) Fluorescence-based ligand binding assays were done under anaerobic conditions. Anaerobiosis was achieved using an oxygen-scavenging system consisting of protecatechuate-3,4-dioxygenase (0.5 units/ml) and 5 mM protocatechuic acid. The steady state and time-resolved phosphorescence measurements were performed with the use of a Cary Eclipse fluorescence spectrophotometer (Varian/Agilent Technologies). The excitation wavelength was set to 540 nm. Spectra were taken from 650 to 860 nm with 100 µs delay.
(§3) Quantitative interpretation of LRET results was also based on the use of PCA applied to a series of emission spectra normalized on integral intensity. […] Intensity of the donor and acceptor fluorescence obtained in this way were used in determination of the efficiency of steady-state LRET using the equation [drawing 1] (Eq.1) where I ad is emission intensity of the acceptor, I da is the residual donor emission in the presence of acceptor (I da), Φ a and Φ d are the quantum yield of the fluorescence of acceptor and the quantum yield of the phosphorescence of donor, respectively.
(§4) Distances were calculated using the equation: [drawing 3] (Eq.3) where R 0 is the Förster distance, and R is the distance between the donor and acceptor. R 0 was calculated with the use of PhotoChemCad software. In these calculations, we used the values of the orientation factor (κ^2) and the refractive index (n) of 0.667 and 1.4, respectively.
(§5) When fitting the results of titration experiments, where the changes in the monitored signal A S (fraction of the enzyme in the high-spin state, intensity or the lifetime of the donor phosphorescence at a given substrate concentration) were assumed to be proportional to [ES], this equation was complemented with the offset A 0 and the scaling factor A max to yield the following relationship: [drawing 5] (Eq.5)

[2] = target: T1, double-labeled CYP3A4 (C64/C468)-ER/DY (Homo sapiens, UniProt P08684, S18F, form not given); assay: Steady-state LRET titration (delayed emission); assay type: binding
T1 sequence (P08684 13-503 S18F, form open): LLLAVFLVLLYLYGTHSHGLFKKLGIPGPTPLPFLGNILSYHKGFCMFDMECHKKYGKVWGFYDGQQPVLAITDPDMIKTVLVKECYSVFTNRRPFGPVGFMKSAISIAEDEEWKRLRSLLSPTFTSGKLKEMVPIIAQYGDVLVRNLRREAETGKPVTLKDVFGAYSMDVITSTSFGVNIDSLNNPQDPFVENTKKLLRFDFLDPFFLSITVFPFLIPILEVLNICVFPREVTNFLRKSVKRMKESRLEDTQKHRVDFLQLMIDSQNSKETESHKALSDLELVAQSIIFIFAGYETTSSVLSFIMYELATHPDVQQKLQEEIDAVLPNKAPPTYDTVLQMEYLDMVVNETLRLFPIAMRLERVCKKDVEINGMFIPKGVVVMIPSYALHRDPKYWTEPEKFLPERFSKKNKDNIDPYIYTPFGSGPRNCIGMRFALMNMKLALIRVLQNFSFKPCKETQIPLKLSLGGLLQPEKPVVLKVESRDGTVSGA
Protocol: as §1, §2, §3, §4, §5

[3] = target: T2, double-labeled CYP3A4 (C64/C468)-DY/ER (Homo sapiens, UniProt P08684, S18F, form not given); assay: Steady-state LRET titration (delayed emission); assay type: binding
T2 sequence (P08684 13-503 S18F, form open): as above
Protocol: as §1, §2, §3, §4, §5

[4] = target: T3, double-labeled CYP3A4 C377/C468-DY/ER (Homo sapiens, UniProt P08684, S18F, form not given); assay: Steady-state LRET titration (delayed emission); assay type: binding; conditions: Table S2, protein C377/C468-ER/DY
T3 sequence (P08684 13-503 S18F, form open): as above
Protocol: as §1, §2, §3, §4, §5

[5] = target: CYP3A4 (double-labeled (C64/C468)-ER/DY) (Homo sapiens, UniProt P08684, form not given/S18F); assay: Steady-state LRET titration (delayed emission); assay type: binding; conditions: human, purified double-labeled CYP3A4 (C64/C468)-ER/DY protein, pH 7.4; (C64/C468)-ER/DY; LRET titration; read-out: K d, steady-state fluorescence
Sequence of CYP3A4 (double-labeled (C64/C468)-ER/DY) (P08684 13-503 S18F, form open): as above
Protocol: as §1, §2, §3, §4, §5

[6] = target: T1, double-labeled CYP3A4 (C64/C468)-ER/DY; assay: Time-resolved LRET (phosphorescence lifetime measurements)
Text: (§6) The excitation wavelength was set to 540 nm.

[7] = target: T2, double-labeled CYP3A4 (C64/C468)-DY/ER; assay: as above
Text: as §6

[8] = target: T3, double-labeled CYP3A4 C377/C468-DY/ER; assay: as above
Text: as §6

[9] = target: T4, double-labeled CYP3A4 C64/C121-DY/ER (Homo sapiens, UniProt P08684, A121C/C239S/C377S/C468A/C98S/S18F); assay: as above; conditions: same ligand concentrations
T4 sequence (P08684 with tags, fused parts or gaps S18F/C98S/A121C/C239S/C377S/C468A limits assumed): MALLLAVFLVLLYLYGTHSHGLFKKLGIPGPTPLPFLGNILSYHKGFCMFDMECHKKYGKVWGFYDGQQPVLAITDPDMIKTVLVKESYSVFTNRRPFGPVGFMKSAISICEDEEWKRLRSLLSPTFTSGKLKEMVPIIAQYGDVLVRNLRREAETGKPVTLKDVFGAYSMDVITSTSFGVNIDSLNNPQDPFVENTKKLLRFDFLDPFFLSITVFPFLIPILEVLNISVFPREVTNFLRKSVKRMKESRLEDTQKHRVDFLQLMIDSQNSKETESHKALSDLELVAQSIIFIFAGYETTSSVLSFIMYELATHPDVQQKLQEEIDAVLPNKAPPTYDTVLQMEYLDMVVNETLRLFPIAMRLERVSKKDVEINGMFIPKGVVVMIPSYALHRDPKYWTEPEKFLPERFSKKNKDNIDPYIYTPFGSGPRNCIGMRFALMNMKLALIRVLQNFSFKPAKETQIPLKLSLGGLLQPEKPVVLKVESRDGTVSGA
Protocol: as §1, §2
The treatment of the time-resolved decay traces was performed using a bi-exponential approximation. The efficiency of time-resolved LRET was calculated using the equation [drawing 2] (Eq.2)
In this equation τda and τd designate the average lifetime of the excited state of the donor in the presence and absence of the acceptor, respectively. These average lifetimes are determined as τ = α1τ1+α2τ2, where τ1,2 and α1,2 stay for the lifetime and the relative amplitude of each of the two exponential terms. In our calculations of the lifetime in double-labeled C64/C468, C377/C468 and C64/C121 proteins we used the lifetimes of phosphorescence measured with the respective proteins labeled with ERIA at a label:protein ratio 2∶1 as the estimates of τd.
as §4

[10] = target: T4, double-labeled CYP3A4 C64/C121-DY/ER; assay: Steady-state LRET titration (delayed emission); conditions: Table S2; protein C64/C121-ER/DY; same ligand concentrations
Protocol: as §1, §2, §3, §4, §5

[11] = Table S2, C64/C468-ER/DY, 1-PB 40 µM, ANF 100 µM, BCT 2.5 µM, cholesterol 100 µM, testosterone 100 µM
[12] = Table S2, C64/C468-ER/DY, same ligand concentrations
[13] = Table S2, C64/C468-DY/ER, 1-PB 40 µM, ANF 100 µM, BCT 2.5 µM, cholesterol 100 µM, testosterone 100 µM
[14] = Table S2, C64/C468-DY/ER, same ligand concentrations
[15] = (C64/C468)-ER/DY, nearly-saturating ligand: ANF 100 µM, bromocriptine 2.5 µM, cholesterol 50 µM, testosterone 100 µM
[16] = Table S1, (C64/C468)-ER/DY, same ligand concentrations
[17] = (C64/C468)-DY/ER, nearly-saturating ligand: ANF 100 µM, bromocriptine 2.5 µM, cholesterol 50 µM, testosterone 100 µM
[18] = Table S1, (C64/C468)-DY/ER, same ligand concentrations
[19] = Table S1, protein (C377/C468)-ER/DY, same ligand concentrations
[20] = Table S2, protein C377/C468-ER/DY, same ligand concentrations
[21] = Table S1, protein (C64/C121)-ER/DY
[22] = Table S2, protein C64/C121-ER/DY

Sequence of CYP3A4 (double-labeled (C64/C468)-DY/ER) (P08684 13-503 S18F, form open): as the sequence (P08684 13-503 S18F, form open) above

CC(C)CCC[C@@H](C)[C@H]1CC[C@H]2[C@@H]3CC=C4C[C@@H](O)CC[C@]4(C)[C@H]3CC[C@]12C [Cholesterol, cholesterol]
Kd [1]: 6.5 ± 1.1 µM | ΔR (change in interprobe distance), steady-state fluorescence ([2]; (C64/C468)-ER/DY): 3.5±0.7 Å | ΔE (change in LRET efficiency), steady-state fluorescence ([2]; (C64/C468)-ER/DY, from maximal relative change in donor intensity): −10±5% | E (LRET efficiency with ligand), steady-state measurements [2, 11]: 19 ± 1% | R (interprobe distance with ligand), steady-state measurements [2, 12]: 42.6 ± 0.7 Å | ΔR, steady-state measurements [2, 12]: 3.5 ± 0.7 Å | ΔR (change in interprobe distance), steady-state fluorescence ([3]; (C64/C468)-DY/ER): 5.9±2.0 Å | ΔE (change in LRET efficiency), steady-state fluorescence ([3]; (C64/C468)-DY/ER, from maximal relative change in donor intensity): −11±1% | E (LRET efficiency with ligand), steady-state measurements [3, 13]: 24 ± 1% | R (interprobe distance with ligand), steady-state measurements [3, 14]: 40.8 ± 2.0 Å | ΔR, steady-state measurements [3, 14]: 5.9 ± 2.0 Å | E (LRET efficiency with ligand), steady-state measurements ([4]; 1-PB 40 µM, ANF 100 µM, BCT 2.5 µM, cholesterol 100 µM, testosterone 100 µM): 14 ± 0% | R (interprobe distance with ligand), steady-state measurements ([4]; same ligand concentrations): 45.2 ± 0.1 Å | ΔR, steady-state measurements ([4]; same ligand concentrations): 0.5 ± 0.1 Å | Kd [5]: 7.7 ± 0.9 µM | ΔELT (change in LRET efficiency), lifetime measurements [6, 15]: −16.6±1% | ΔR (change in interprobe distance), lifetime measurements [6, 15]: 4.8±0.2 Å | τ1 (phosphorescence decay time with ligand) ([6]; Table S1, (C64/C468)-ER/DY, 1-PB 40 µM, ANF 100 µM, BCT 2.5 µM, cholesterol 100 µM, testosterone 100 µM, bi-exponential fit): 79 ± 1 µs | F1 (fraction of first exponential) [6, 16]: 53 ± 7% | τ2 (phosphorescence decay time with ligand) [6, 16]: 268 ± 2 µs | τav (average phosphorescence lifetime with ligand) [6, 16]: 173 ± 1 µs | E (LRET efficiency with ligand), lifetime measurements [6, 11]: 26 ± 1% | R (interprobe distance with ligand), lifetime measurements [6, 12]: 41.1± 0.2 Å | ΔR, lifetime measurements [6, 12]: 4.8 ± 0.2 Å | ΔELT (change in LRET efficiency), lifetime measurements [7, 17]: −5.9±3% | ΔR (change in interprobe distance), lifetime measurements [7, 17]: 1.6±1.0 Å | τ1 (phosphorescence decay time with ligand) ([7]; Table S1, (C64/C468)-DY/ER, 1-PB 40 µM, ANF 100 µM, BCT 2.5 µM, cholesterol 100 µM, testosterone 100 µM, bi-exponential fit): 59 ± 1 µs | F1 (fraction of first exponential) [7, 18]: 43 ± 2% | τ2 (phosphorescence decay time with ligand) [7, 18]: 221 ± 1 µs | τav (average phosphorescence lifetime with ligand) [7, 18]: 152 ± 6 µs | E (LRET efficiency with ligand), lifetime measurements [7, 13]: 35 ± 3% | R (interprobe distance with ligand), lifetime measurements [7, 14]: 38.3 ± 0.7 Å | ΔR, lifetime measurements [7, 14]: 1.6 ± 0.7 Å | τ1 (phosphorescence decay time with ligand) ([8]; Table S1, protein (C377/C468)-ER/DY, 1-PB 40 µM, ANF 100 µM, BCT 2.5 µM, cholesterol 100 µM, testosterone 100 µM, bi-exponential fit): 38 ± 1 µs | F1 (fraction of first exponential) [8, 19]: 23 ± 5% | τ2 (phosphorescence decay time with ligand) [8, 19]: 163 ± 8 µs | τav (average phosphorescence lifetime with ligand) [8, 19]: 134 ± 3 µs | E (LRET efficiency with ligand), lifetime measurements ([8]; Table S2, protein C377/C468-ER/DY, 1-PB 40 µM, ANF 100 µM, BCT 2.5 µM, cholesterol 100 µM, testosterone 100 µM): 26 ± 2% | R (interprobe distance with ligand), lifetime measurements [8, 20]: 41.0 ± 0.6 Å | ΔR, lifetime measurements [8, 20]: 4.2 ± 0.6 Å | F1 (fraction of first exponential) [9, 21]: 44 ± 3% | τ2 (phosphorescence decay time with ligand) [9, 21]: 222 ± 8 µs | τav (average phosphorescence lifetime with ligand) [9, 21]: 154 ± 1 µs | R (interprobe distance with ligand), lifetime measurements [9, 22]: 35.8 ± 0.1 Å | ΔR, lifetime measurements [9, 22]: 0.8 ± 0.1 Å | R (interprobe distance with ligand), steady-state measurements [10]: 43.6 ± 0.5 Å | ΔR, steady-state measurements [10]: 1.0 ± 0.5 Å
